Assay results taken from ChEMBL document CHEMBL1152446, “Identification of an orally efficacious matrix metalloprotease 12 inhibitor for potential treatment of asthma” (J Med Chem, 2009).
Values belong to the compound of their own block, whether it stands above or below them. Active and inactive are the calls of the source. No cut-off for these calls is given here.

Key:
in vitro [1] = conditions: human, liver microsomes
[2] = Metabolic stability in C57BL/6 mouse liver microsome assessed as half life; format: ADME; conditions: liver microsomes
in vitro [3] = conditions: rat, liver microsomes
Collagenase 3 = Collagenase 3 (Homo sapiens, UniProt P45452); test: Inhibition of human recombinant MMP13
[4] = molecular target: Macrophage metalloelastase (Homo sapiens, UniProt P39900)
Chain of Macrophage metalloelastase (Homo sapiens, UniProt P39900) (P39900 whole entry): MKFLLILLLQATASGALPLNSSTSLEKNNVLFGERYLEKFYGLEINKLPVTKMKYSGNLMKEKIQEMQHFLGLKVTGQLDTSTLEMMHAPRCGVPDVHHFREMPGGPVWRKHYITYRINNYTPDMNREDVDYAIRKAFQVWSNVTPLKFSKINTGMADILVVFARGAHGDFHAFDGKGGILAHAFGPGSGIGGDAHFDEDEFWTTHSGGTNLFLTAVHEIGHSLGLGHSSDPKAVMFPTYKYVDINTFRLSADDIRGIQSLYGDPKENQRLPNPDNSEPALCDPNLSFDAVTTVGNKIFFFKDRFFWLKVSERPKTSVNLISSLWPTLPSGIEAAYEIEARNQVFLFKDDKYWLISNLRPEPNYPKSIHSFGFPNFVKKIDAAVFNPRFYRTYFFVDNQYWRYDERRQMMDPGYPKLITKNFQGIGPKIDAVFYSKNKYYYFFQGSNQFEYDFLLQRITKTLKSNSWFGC

[5] = molecular target: Matrix metalloproteinase-14 (Homo sapiens, UniProt P50281); test: Inhibition of human MMP14
Mus musculus [6] = test: Inhibition of human recombinant MMP12-induced ear-edema in C57BL/6 mouse assessed as decrease in ear edema at 3 mg/kg, po bid administered 2 hrs post challenge; format: functional; conditions: C57BL/6, 2 h
[7] = Inhibition of sheep MMP12; parameters: species or system Ovis aries
Matrilysin = Matrilysin (Homo sapiens, UniProt P09237); test: Inhibition of human MMP7
Chain of Matrilysin (P09237 whole entry): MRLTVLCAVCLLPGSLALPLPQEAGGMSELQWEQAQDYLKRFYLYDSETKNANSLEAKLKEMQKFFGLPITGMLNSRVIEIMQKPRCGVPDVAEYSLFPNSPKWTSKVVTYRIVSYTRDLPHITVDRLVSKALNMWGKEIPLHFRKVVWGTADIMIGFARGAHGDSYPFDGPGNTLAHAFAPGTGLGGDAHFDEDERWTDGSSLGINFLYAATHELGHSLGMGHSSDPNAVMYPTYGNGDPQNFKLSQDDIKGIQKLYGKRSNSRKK

Cytochrome P450 2D6 = Cytochrome P450 2D6 (Homo sapiens, UniProt P10635); test: Inhibition of CYP2D6; format: ADME
Chain of Cytochrome P450 2D6 (P10635 whole entry): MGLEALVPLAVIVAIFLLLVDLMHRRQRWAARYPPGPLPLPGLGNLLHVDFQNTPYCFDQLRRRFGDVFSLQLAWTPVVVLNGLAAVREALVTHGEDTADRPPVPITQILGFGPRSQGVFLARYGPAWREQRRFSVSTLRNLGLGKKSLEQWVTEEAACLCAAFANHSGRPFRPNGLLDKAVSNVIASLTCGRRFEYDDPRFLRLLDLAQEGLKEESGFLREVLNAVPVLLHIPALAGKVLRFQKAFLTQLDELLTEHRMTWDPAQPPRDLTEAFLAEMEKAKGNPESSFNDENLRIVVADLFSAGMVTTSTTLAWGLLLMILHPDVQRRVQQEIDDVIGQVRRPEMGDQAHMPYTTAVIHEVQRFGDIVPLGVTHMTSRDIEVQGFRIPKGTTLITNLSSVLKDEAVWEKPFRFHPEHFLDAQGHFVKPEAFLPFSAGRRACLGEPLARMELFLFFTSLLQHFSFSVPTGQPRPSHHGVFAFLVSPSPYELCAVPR

Interstitial collagenase = Interstitial collagenase (Homo sapiens, UniProt P03956); test: Inhibition of human MMP1
Chain of Interstitial collagenase (P03956 whole entry): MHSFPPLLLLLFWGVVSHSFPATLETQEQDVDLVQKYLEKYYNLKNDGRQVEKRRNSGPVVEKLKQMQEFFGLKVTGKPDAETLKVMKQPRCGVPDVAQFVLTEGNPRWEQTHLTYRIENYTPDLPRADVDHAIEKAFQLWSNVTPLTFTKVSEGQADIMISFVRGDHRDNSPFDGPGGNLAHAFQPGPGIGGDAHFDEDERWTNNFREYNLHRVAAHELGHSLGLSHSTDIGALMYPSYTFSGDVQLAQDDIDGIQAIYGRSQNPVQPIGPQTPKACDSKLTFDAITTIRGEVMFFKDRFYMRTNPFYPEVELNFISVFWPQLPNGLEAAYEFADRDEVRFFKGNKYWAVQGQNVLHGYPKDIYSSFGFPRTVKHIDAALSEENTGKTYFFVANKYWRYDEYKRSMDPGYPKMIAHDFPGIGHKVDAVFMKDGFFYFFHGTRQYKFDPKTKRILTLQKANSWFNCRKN

Mus musculus [8] = test: Inhibition of human recombinant MMP12-induced ear-edema in C57BL/6 mouse assessed as decrease in ear edema at 10 mg/kg, po bid administered 2 hrs post challenge; format: functional; conditions: C57BL/6, 2 h
Neutrophil collagenase = Neutrophil collagenase (Homo sapiens, UniProt P22894); test: Inhibition of human MMP8
Chain of Neutrophil collagenase (P22894 whole entry): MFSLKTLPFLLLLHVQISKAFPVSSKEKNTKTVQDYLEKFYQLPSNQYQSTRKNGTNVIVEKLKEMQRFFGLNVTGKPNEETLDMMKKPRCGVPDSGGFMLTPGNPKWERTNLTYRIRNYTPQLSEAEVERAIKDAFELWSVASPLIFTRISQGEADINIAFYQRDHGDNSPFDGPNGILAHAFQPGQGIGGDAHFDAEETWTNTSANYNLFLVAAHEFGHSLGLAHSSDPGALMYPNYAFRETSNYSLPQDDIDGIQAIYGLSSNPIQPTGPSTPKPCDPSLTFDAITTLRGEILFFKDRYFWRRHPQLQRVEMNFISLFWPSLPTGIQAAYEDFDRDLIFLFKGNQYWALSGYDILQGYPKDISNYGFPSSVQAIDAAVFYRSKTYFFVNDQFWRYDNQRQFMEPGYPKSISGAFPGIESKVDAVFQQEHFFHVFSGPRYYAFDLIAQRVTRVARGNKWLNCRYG

Ovis aries [9] = test: Inhibition of EAR phase of bronchoconstrictive in Ascaris suum challenged sheep asthma model at 10 mg/kg, po twice the day prior to allergen challenge and third dose 1 hr prior to allergen challenge; format: functional, organism-based; parameters: dose 10 mg/kg; conditions: Lung
[10] = molecular target: 72 kDa type IV collagenase (Homo sapiens, UniProt P08253); test: Inhibition of human MMP2
[11] = molecular target: Macrophage metalloelastase (Rattus norvegicus, UniProt Q63341); test: Inhibition of rat MMP12
[12] = Cmax in C57BL/6 mouse at 10 mg/kg, po; format: ADME, organism-based; parameters: dose 10 mg/kg, route oral; conditions: in vivo
Ovis aries [13] = test: Inhibition of carbachol-induced airway hyper-responsiveness in Ascaris suum challenged sheep asthma model at 10 mg/kg, po; format: functional, organism-based; parameters: dose 10 mg/kg
[14] = molecular target: Macrophage metalloelastase (Mus musculus, UniProt P34960); test: Inhibition of mouse MMP12
[15] = molecular target: Matrix metalloproteinase-9 (Homo sapiens, UniProt P14780); test: Inhibition of human MMP9
[16] = Clearance in C57BL/6 mouse at 2 mg/kg, iv; format: ADME, organism-based; parameters: dose 2 mg/kg, route intravenous; conditions: in vivo
Mus musculus [17] = test: Inhibition of human recombinant MMP12-induced ear-edema in C57BL/6 mouse assessed as decrease in ear edema at 30 mg/kg, po bid administered 2 hrs post challenge; format: functional; conditions: C57BL/6, 2 h
Cytochrome P450 3A4 = Cytochrome P450 3A4 (Homo sapiens, UniProt P08684); test: Inhibition of CYP3A4; format: ADME
[18] = molecular target: A disintegrin and metalloproteinase with thrombospondin motifs 5 (Homo sapiens, UniProt Q9UNA0); test: Inhibition of human Aggrecanase 2
Chain of A disintegrin and metalloproteinase with thrombospondin motifs 5 (Q9UNA0 whole entry): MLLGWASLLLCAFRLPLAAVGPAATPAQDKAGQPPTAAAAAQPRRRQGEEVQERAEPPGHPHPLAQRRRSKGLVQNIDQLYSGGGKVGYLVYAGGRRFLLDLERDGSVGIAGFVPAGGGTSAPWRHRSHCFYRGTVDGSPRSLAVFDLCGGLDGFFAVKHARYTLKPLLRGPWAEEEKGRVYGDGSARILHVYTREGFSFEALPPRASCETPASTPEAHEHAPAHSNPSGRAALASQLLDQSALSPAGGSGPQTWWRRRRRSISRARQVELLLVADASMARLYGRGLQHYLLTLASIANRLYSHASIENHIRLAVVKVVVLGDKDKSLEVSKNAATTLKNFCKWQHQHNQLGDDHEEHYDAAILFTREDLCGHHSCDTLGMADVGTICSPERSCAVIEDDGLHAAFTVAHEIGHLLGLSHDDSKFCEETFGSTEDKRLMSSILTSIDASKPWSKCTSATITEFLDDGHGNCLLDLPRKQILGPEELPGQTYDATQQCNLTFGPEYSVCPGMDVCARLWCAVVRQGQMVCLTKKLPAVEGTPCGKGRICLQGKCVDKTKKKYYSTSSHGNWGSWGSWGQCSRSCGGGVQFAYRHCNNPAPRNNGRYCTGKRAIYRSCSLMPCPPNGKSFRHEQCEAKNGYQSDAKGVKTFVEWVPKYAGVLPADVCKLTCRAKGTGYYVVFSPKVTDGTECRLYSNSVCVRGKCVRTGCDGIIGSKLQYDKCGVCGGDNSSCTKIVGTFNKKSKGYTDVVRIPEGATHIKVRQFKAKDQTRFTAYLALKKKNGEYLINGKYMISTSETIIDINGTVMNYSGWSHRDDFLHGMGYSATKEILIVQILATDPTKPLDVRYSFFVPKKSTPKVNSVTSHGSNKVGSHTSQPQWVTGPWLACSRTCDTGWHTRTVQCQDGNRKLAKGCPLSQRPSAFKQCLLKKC

Stromelysin-1 = Stromelysin-1 (Homo sapiens, UniProt P08254); test: Inhibition of human MMP3
Chain of Stromelysin-1 (P08254 whole entry): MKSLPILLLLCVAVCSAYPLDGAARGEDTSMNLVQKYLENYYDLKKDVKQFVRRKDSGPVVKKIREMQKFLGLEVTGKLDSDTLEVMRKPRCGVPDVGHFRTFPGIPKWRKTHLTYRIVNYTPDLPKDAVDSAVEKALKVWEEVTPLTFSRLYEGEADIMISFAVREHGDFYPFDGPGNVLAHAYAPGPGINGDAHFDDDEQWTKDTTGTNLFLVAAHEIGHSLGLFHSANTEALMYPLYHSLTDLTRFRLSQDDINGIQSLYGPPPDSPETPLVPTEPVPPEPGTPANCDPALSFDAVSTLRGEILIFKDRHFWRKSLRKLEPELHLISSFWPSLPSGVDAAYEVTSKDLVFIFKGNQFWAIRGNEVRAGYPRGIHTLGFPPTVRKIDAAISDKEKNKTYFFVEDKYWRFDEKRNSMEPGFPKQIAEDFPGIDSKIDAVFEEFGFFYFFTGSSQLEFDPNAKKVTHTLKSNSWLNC

[19] = Oral bioavailability in C57BL/6 mouse at 10 mg/kg; format: ADME, organism-based; conditions: in vivo
[20] = molecular target: Voltage-gated inwardly rectifying potassium channel KCNH2 (Homo sapiens, UniProt Q12809); test: Inhibition of human ERG at 10 uM by ion works assay
Cytochrome P450 2C9 = Cytochrome P450 2C9 (Homo sapiens, UniProt P11712); test: Inhibition of CYP2C9; format: ADME
Chain of Cytochrome P450 2C9 (P11712 whole entry, the tested form may be a part): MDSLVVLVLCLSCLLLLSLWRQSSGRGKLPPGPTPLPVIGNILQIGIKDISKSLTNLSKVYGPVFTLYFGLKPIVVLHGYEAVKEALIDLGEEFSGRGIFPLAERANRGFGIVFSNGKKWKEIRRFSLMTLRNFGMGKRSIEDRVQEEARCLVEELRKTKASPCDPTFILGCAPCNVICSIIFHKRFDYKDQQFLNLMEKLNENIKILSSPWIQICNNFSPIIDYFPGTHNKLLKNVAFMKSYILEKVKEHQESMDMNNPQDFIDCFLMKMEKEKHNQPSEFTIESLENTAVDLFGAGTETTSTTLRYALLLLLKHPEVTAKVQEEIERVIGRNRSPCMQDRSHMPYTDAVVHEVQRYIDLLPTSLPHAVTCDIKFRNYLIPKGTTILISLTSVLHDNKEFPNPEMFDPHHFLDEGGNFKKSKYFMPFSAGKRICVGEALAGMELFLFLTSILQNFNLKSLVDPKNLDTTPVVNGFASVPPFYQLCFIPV

[21] = molecular target: Disintegrin and metalloproteinase domain-containing protein 17 (Homo sapiens, UniProt P78536); test: Inhibition of human TACE
[22] = Volume of distribution at steady state in C57BL/6 mouse at 2 mg/kg, iv; format: ADME, organism-based; parameters: dose 2 mg/kg, route intravenous; conditions: in vivo, read-out: Vdss
[23] = molecular target: A disintegrin and metalloproteinase with thrombospondin motifs 4 (Homo sapiens, UniProt O75173); test: Inhibition of human Aggrecanase 1
Chain of A disintegrin and metalloproteinase with thrombospondin motifs 4 (O75173 whole entry): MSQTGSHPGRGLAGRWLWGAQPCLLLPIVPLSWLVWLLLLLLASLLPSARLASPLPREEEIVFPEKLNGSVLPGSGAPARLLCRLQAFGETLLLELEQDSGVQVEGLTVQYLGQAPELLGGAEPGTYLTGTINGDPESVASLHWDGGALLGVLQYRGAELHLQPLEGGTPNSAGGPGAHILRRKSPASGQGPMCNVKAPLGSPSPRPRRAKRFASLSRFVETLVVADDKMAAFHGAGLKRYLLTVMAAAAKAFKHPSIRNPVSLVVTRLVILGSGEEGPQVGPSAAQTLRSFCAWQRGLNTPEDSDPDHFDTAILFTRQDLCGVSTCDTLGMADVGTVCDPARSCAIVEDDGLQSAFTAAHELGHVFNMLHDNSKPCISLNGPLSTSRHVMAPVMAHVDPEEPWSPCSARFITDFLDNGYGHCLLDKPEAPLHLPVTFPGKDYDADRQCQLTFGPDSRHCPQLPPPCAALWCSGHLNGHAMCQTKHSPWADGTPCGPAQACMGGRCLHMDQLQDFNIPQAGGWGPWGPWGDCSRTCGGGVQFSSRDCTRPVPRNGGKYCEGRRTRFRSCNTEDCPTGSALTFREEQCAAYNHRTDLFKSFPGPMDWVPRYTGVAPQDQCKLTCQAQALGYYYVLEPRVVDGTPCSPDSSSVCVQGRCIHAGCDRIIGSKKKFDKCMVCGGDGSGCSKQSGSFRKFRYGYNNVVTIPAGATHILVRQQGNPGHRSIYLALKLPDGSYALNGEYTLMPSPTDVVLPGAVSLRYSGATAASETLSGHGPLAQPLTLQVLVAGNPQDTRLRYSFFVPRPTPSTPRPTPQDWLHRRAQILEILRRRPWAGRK

[24] = Half life in C57BL/6 mouse at 10 mg/kg, po; format: ADME, organism-based; parameters: dose 10 mg/kg, route oral; conditions: in vivo

SMILES: CCOC(=O)Nc1ccc2oc3cc(S(=O)(=O)N[C@H](C(=O)O)C(C)C)ccc3c2c1
half-life (in vitro [1]): > 30 min
half-life [2]: > 30 min
half-life (in vitro [3]): > 30 min

SMILES: CC(C)[C@H](NS(=O)(=O)c1ccc2c(c1)oc1cc(N)ccc12)C(=O)O
half-life (in vitro [1]): > 30 min
IC50 (Collagenase 3): 1090 nM
half-life [2]: > 30 min
half-life (in vitro [3]): > 30 min

SMILES: CC(C)[C@H](NS(=O)(=O)c1ccc2sc3ccccc3c2c1)C(=O)O
IC50 (Collagenase 3): 60000 nM

SMILES: CC(C)[C@H](NS(=O)(=O)c1ccc2c(c1)sc1cc(N3CCOC3=O)ccc12)C(=O)O
half-life (in vitro [1]): > 30 min
IC50 (Collagenase 3): 140 nM
half-life [2]: > 30 min
half-life (in vitro [3]): > 30 min

SMILES: CCNC(=O)Nc1ccc2c(c1)sc1cc(S(=O)(=O)N[C@H](C(=O)O)C(C)C)ccc12
half-life (in vitro [1]): > 30 min
IC50 (Collagenase 3): 809 nM
half-life [2]: > 30 min
half-life (in vitro [3]): > 30 min

SMILES: CCOC(=O)Nc1ccc2c(c1)sc1cc(S(=O)(=O)N[C@@H](C(=O)O)C(C)C)ccc12
half-life (in vitro [1]): > 30 min
half-life [2]: > 30 min
half-life (in vitro [3]): > 30 min

SMILES: CC(C)[C@H](NS(=O)(=O)c1ccc2c(c1)sc1cc(NC(=O)NC3CCCC3)ccc12)C(=O)O
IC50 [4]: > 1000 nM
half-life (in vitro [1]): > 30 min
IC50 (Collagenase 3): > 1000 nM
half-life [2]: > 30 min
half-life (in vitro [3]): > 30 min

SMILES: CC(C)[C@H](NS(=O)(=O)c1ccc2c(c1)sc1cc(NC(=O)Oc3ccc(F)cc3)ccc12)C(=O)O
half-life (in vitro [1]): > 30 min
IC50 (Collagenase 3): 217 nM
half-life [2]: > 30 min
half-life (in vitro [3]): > 30 min

SMILES: COC(=O)Nc1ccc2c(c1)sc1ccc(S(=O)(=O)N[C@H](C(=O)O)C(C)C)cc12
half-life (in vitro [1]): > 30 min
IC50 (Collagenase 3): > 25000 nM
half-life [2]: > 30 min
half-life (in vitro [3]): > 30 min

SMILES: CC(C)[C@H](NS(=O)(=O)c1ccc2sc3cc(NS(C)(=O)=O)ccc3c2c1)C(=O)O
IC50 (Collagenase 3): > 25000 nM

SMILES: CC(C)[C@@H](NS(=O)(=O)c1ccc2c(c1)sc1cc(NC(=O)Nc3ccccc3)ccc12)C(=O)O
half-life (in vitro [1]): > 30 min
IC50 (Collagenase 3): 1290 nM
half-life [2]: > 30 min
half-life (in vitro [3]): > 30 min

Second part, led by results:

half-life (in vitro [1]): > 30 min
IC50 (Collagenase 3): 40 nM
half-life [2]: > 30 min
half-life (in vitro [3]): > 30 min
SMILES: CC(C)[C@H](NS(=O)(=O)c1ccc2c(c1)sc1cc(NC(=O)OCCS(C)(=O)=O)ccc12)C(=O)O

half-life (in vitro [1]): > 30 min
IC50 (Collagenase 3): 456 nM
half-life [2]: > 30 min
half-life (in vitro [3]): > 30 min
SMILES: CC(C)[C@H](NS(=O)(=O)c1ccc2c(c1)sc1cc(NC(=O)NCCc3cccs3)ccc12)C(=O)O

half-life (in vitro [1]): > 30 min
IC50 (Collagenase 3): 505 nM
half-life [2]: > 30 min
half-life (in vitro [3]): > 30 min
SMILES: COC(=O)Nc1ccc2c(c1)oc1cc(S(=O)(=O)N[C@H](C(=O)O)C(C)C)ccc12

half-life (in vitro [1]): > 30 min
IC50 (Collagenase 3): 56 nM
half-life [2]: > 30 min
half-life (in vitro [3]): > 30 min
SMILES: CCOC(=O)Nc1ccc2c(c1)sc1cc(S(=O)(=O)N[C@H](C(=O)O)C(C)C)ccc12

half-life (in vitro [1]): > 30 min
IC50 (Collagenase 3): 147 nM
half-life [2]: > 30 min
half-life (in vitro [3]): > 30 min
SMILES: CC(C)OC(=O)Nc1ccc2c(c1)sc1cc(S(=O)(=O)N[C@H](C(=O)O)C(C)C)ccc12

half-life (in vitro [1]): > 30 min
IC50 (Collagenase 3): 235 nM
half-life [2]: > 30 min
half-life (in vitro [3]): > 30 min
SMILES: Cc1ccc(OC(=O)Nc2ccc3c(c2)sc2cc(S(=O)(=O)N[C@H](C(=O)O)C(C)C)ccc23)cc1

half-life (in vitro [1]): > 30 min
IC50 (Collagenase 3): 334 nM
half-life [2]: > 30 min
half-life (in vitro [3]): > 30 min
SMILES: CC(C)COC(=O)Nc1ccc2c(c1)sc1cc(S(=O)(=O)N[C@H](C(=O)O)C(C)C)ccc12

IC50 [5]: 2250 nM
half-life (in vitro [1]): > 30 min
IC50 [7]: 2 nM
IC50 (Matrilysin): 7830 nM
inhibition (INH) (Cytochrome P450 2D6): Not Active
IC50 (Interstitial collagenase): 5460 nM
IC50 (Neutrophil collagenase): 37 nM
IC50 [10]: 66 nM
IC50 [11]: 72 nM
Cmax [12]: 456 ng/mL
IC50 [14]: 27 nM
IC50 [15]: 318 nM
clearance [16]: 18 mL/min/kg
IC50 (Collagenase 3): 106 nM
inhibition (INH) (Cytochrome P450 3A4): Not Active
IC50 [18]: 22600 nM
IC50 (Stromelysin-1): 300 nM
half-life [2]: > 30 min
bioavailability [19]: 17%
inhibition (INH) (Cytochrome P450 2C9): Not Active
IC50 [21]: 40000 nM
Vd [22]: 0.8 L/kg
IC50 [23]: 18000 nM
half-life (in vitro [3]): > 30 min
half-life [24]: 186 min
SMILES: CC(C)[C@H](NS(=O)(=O)c1ccc2c(c1)oc1ccc(N3CCOC3=O)cc12)C(=O)O
inhibition in vivo at 3 mg/kg (Mus musculus [6]): 25.2%
inhibition in vivo at 10 mg/kg (Mus musculus [8]): 35.1%
inhibition (Ovis aries [9]): Active
inhibition (Ovis aries [13]): Active
inhibition in vivo at 30 mg/kg (Mus musculus [17]): 40.3%
inhibition (INH) [20]: Not Active
